Experimental data taken from ChEMBL document CHEMBL5543060, “Technologies of targeting histone deacetylase in drug discovery: Current progress and emerging prospects” (Eur J Med Chem, 2023).
pIC50: −log10 of the molar value.

Tests used:
[1] = target: von Hippel-Lindau disease tumor suppressor/Protein deacetylase HDAC6 (Homo sapiens, UniProt Q9UBN7+P40337); assay: Protac activity at VHL/HDAC6 in human MDA-MB-468 cells assessed as HDAC6 degradation measured after 14 hrs by Western blot analysis; assay type: cell-based
[2] = target: T1, Protein deacetylase HDAC6 (Homo sapiens, UniProt Q9UBN7); assay: Inhibition of human recombinant HDAC6 using fluorogenic HDAC substrate by fluorescence assay
T1 sequence (Q9UBN7 whole entry): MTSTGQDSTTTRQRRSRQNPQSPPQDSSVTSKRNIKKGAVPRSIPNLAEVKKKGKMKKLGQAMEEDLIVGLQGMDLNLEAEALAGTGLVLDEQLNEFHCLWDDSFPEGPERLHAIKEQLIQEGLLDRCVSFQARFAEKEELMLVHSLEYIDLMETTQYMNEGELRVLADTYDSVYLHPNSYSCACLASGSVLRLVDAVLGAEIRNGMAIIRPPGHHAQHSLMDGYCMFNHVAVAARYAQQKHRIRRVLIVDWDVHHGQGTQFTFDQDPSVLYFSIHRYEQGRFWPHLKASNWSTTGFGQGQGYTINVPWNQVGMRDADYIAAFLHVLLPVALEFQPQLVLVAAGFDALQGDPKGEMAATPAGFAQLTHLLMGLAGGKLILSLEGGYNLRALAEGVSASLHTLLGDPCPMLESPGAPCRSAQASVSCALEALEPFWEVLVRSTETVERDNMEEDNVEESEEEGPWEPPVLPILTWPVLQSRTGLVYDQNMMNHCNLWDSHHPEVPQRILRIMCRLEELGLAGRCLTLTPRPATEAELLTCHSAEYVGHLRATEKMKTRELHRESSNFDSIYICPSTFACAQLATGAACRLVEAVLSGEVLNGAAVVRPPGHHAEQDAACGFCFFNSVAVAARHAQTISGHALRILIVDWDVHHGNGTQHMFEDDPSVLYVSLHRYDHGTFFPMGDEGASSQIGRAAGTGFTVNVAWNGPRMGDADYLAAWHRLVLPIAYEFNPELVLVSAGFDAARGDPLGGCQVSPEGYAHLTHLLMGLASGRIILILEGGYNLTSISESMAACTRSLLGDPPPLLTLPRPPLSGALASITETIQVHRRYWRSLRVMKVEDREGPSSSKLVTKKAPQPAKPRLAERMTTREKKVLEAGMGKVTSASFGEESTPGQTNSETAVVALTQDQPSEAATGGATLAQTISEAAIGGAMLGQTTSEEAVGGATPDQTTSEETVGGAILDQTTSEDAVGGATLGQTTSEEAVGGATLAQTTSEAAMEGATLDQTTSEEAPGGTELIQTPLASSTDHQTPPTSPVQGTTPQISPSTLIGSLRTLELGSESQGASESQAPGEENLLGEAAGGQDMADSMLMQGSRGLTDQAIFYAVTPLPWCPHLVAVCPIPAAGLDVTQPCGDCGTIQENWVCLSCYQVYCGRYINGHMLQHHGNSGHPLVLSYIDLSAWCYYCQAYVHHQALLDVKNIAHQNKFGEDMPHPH

Histone deacetylase 8 [3] = target: T2, Histone deacetylase 8 (Homo sapiens, UniProt Q9BY41); assay: Inhibition of human HDAC8 using Boc-Lys (Ac)-AMC as substrate incubated for 60 mins by fluorimetric assay
T2 sequence (Q9BY41 whole entry): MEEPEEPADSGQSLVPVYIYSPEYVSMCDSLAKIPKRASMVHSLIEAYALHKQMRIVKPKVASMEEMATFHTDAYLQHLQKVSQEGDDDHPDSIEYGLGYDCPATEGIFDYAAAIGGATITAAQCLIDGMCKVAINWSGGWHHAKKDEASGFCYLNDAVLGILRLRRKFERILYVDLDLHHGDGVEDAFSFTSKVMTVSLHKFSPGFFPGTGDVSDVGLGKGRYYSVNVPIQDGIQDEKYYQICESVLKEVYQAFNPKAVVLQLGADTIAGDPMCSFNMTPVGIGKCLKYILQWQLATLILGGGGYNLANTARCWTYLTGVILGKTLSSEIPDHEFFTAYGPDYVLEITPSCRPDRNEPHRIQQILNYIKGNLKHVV

[4] = target: T1, Protein deacetylase HDAC6; assay: Inhibition of HDAC6 (unknown origin) using Ac-peptide as substrate preincubated for 15 mins followed by substrate addition and measured after 1 hr by fluorescence based assay
[5] = target: Cyclin-dependent kinase 4 (Homo sapiens, UniProt P11802); assay: Inhibition of CDK4 (unknown origin)
[6] = target: von Hippel-Lindau disease tumor suppressor/Histone deacetylase 1 (Homo sapiens, UniProt Q13547+P40337); assay: PROTAC activity at VHL/HDAC1 in human ES1 cells assessed as HDAC1 degradation by fluorescence based assay; assay type: cell-based
[7] = target: von Hippel-Lindau disease tumor suppressor/Histone deacetylase 2 (Homo sapiens, UniProt Q92769+P40337); assay: PROTAC activity at VHL/HDAC2 in human ES1 cells assessed as HDAC2 degradation by fluorescence based assay; assay type: cell-based
Histone deacetylase 2 = Histone deacetylase 2 (Homo sapiens, UniProt Q92769); assay: Inhibition of human recombinant HDAC2 using Ac-RHKK(Acetyl)-AMC peptide as fluorogenic substrate pre-incubated for 30 mins followed by substrate addition and measured for 60 mins by fluorescence based analysis
Histone deacetylase 1 [8] = target: T3, Histone deacetylase 1 (Homo sapiens, UniProt Q13547); assay: Inhibition of human recombinant HDAC1 using Ac-RHKK(Acetyl)-AMC peptide as fluorogenic substrate pre-incubated for 30 mins followed by substrate addition and measured for 60 mins by fluorescence based analysis
Histone deacetylase 8 [9] = target: T2, Histone deacetylase 8; assay: Inhibition of HDAC8 (unknown origin) using Fluoro-Substrate Peptide as substrate by fluorescence based assay
Histone deacetylase 3 [10] = target: T4, Histone deacetylase 3 (Homo sapiens, UniProt O15379); assay: Inhibition of HDAC3 (unknown origin) at 10 uM relative to control
Homo sapiens = organism: Homo sapiens; assay: Inhibition of Topoisomerase 2 (unknown origin) at 50 to 100 uM incubated for 15 mins in the presence of ATP by electrophoretic analysis; details: dose 50-100 µM
Histone deacetylase 1 [11] = target: T3, Histone deacetylase 1; assay: Inhibition of HDAC1 (unknown origin) by fluorescence based assay
[12] = target: T5, Bromodomain-containing protein 4 (Homo sapiens, UniProt O60885); assay: Inhibition of BRD4 BD1 (unknown origin) incubated for 15 mins by TR-FRET analysis
[13] = target: T5, Bromodomain-containing protein 4; assay: Inhibition of BRD4 BD2 (unknown origin) by TR-FRET assay
Histone deacetylase 3 [14] = target: T4, Histone deacetylase 3; assay: Inhibition of HDAC3 (unknown origin) using biotinylated histone H3 KAc peptide as substrate pretreated with compound for 1 hrs followed by substrate addition measured after 1 hrs by microplate reader analysis by HTRF assay
[15] = target: T6, Protein cereblon/Histone deacetylase 8 (Homo sapiens, UniProt Q9BY41+Q96SW2); assay: PROTAC activity at HDAC8/CRBN in human HCT-116 cells assessed as degradation of HDAC8 by Western blot analysis; assay type: cell-based
[16] = target: Protein cereblon/Histone deacetylase 3 (Homo sapiens, UniProt O15379+Q96SW2); assay: Protac activity at CRBN/HDAC3 in human MDA-MB-468 cells assessed as HDAC3 degradation measured after 14 hrs by Western blot analysis; assay type: cell-based
[17] = Metabolic stability in human Hepatocyte assessed as half life by LC-MS/MS analysis; assay type: ADME, cell-based; details: hepatocytes
[18] = target: T7, Vascular endothelial growth factor receptor 2 (Homo sapiens, UniProt P35968); assay: Inhibition of VEGFR2 (unknown origin) using poly (Glu,Tyr) 4:1 as substrate measured after 1 hr in presence of ATP by spectrophotometric analysis
Histone deacetylase 1 [19] = target: T3, Histone deacetylase 1; assay: Inhibition of human recombinant HDAC1 using fluorogenic substrate incubated for 30 mins by fluorescence based assay
[20] = target: Vascular endothelial growth factor receptor 1 (Homo sapiens, UniProt P17948); assay: Inhibition of VEGFR1 (unknown origin)
[21] = target: T1, Protein deacetylase HDAC6; assay: Inhibition of HDAC6 (unknown origin) using biotinylated histone H3 KAc peptide (1 to 21 residues) as substrate by HTRF assay
Histone deacetylase 1 [22] = target: T3, Histone deacetylase 1; assay: Inhibition of HDAC1 (unknown origin) using ZMAL (Z-Lys(Ac)-AMC as fluorogenic substrate pre-incubated for 30 mins measured for 1 hr by fluorescence based analysis
[23] = target: T7, Vascular endothelial growth factor receptor 2; assay: Inhibition of VEGFR2 (unknown origin) expressed in baculovirus infected insect cells using biotinylated-GGGGQDGKDYIVLPI peptide as substrate incubated for 1 to 4 hrs by TR-FRET assay
Histone deacetylase 1 [24] = target: T3, Histone deacetylase 1; assay: Inhibition of HDAC1 (unknown origin)
Histone deacetylase 8 [25] = target: T2, Histone deacetylase 8; assay: Inhibition of human recombinant His-tagged HDAC8 expressed in Escherichia coli BL21 (DE3) using ArgHisLysLys(Ac) as substrate pre-incubated for 1 hr and measured after 1 hr by fluorescence based analysis
Histone deacetylase 3 [26] = target: T4, Histone deacetylase 3; assay: Inhibition of HDAC3 (unknown origin)
[27] = target: T6, Protein cereblon/Histone deacetylase 8; assay: PROTAC activity at HDAC8/CRBN in human HCT-116 cells assessed as degradation of HDAC8 measured after 10 hrs in presence of E3 ligase inhibitor by Western blot analysis; assay type: cell-based
[28] = target: T1, Protein deacetylase HDAC6; assay: Inhibition of HDAC6 (unknown origin)

Chain of von Hippel-Lindau disease tumor suppressor/Histone deacetylase 1 (Q13547 whole entry): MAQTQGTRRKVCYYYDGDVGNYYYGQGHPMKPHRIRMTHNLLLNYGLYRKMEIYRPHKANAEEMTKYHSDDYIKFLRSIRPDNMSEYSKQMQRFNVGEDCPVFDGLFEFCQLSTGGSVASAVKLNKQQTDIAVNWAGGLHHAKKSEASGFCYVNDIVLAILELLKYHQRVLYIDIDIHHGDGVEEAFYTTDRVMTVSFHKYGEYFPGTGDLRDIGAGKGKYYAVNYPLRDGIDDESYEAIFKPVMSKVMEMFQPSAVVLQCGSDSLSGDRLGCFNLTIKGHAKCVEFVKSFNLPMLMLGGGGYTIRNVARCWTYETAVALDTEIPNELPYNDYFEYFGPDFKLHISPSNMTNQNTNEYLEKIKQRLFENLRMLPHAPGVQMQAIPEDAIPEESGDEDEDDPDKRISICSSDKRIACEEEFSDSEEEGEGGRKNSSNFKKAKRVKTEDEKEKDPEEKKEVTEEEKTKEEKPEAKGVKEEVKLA
Chain of von Hippel-Lindau disease tumor suppressor/Histone deacetylase 1 (P40337 whole entry): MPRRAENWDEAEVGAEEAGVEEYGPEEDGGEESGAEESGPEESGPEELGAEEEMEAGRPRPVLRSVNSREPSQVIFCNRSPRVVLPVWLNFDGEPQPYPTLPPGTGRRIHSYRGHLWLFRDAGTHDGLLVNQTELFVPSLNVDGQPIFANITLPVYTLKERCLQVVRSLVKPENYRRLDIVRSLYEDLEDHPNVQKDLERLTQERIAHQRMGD
T3 sequence (Q13547 whole entry): as the sequence (Q13547 whole entry) above
T4 sequence (O15379 whole entry): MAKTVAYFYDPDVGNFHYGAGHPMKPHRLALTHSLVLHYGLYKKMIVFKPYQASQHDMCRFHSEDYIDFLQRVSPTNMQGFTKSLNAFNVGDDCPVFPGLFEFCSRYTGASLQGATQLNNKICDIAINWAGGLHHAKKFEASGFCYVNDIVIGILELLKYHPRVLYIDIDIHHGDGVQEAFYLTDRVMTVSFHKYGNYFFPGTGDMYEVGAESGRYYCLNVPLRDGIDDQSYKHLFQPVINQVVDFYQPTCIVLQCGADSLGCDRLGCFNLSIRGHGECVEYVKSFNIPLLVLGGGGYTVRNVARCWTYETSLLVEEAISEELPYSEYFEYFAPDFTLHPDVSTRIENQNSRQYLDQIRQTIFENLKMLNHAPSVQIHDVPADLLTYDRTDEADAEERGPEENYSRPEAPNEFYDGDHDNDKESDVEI
T6 sequence (Q96SW2 whole entry, one chain of several): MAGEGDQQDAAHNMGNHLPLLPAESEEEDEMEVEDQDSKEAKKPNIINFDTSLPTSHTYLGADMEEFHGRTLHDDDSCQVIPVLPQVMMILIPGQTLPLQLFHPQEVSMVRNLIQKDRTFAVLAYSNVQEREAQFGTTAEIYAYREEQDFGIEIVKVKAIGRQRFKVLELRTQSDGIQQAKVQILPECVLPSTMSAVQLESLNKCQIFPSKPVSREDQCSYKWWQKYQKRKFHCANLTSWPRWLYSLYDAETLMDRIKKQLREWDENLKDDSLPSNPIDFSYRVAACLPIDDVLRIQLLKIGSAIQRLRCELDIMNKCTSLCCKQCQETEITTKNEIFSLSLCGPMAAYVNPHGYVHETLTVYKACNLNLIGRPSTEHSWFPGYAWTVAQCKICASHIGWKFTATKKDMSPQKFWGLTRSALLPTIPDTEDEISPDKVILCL
Chain of von Hippel-Lindau disease tumor suppressor/Histone deacetylase 2 (Q92769 whole entry): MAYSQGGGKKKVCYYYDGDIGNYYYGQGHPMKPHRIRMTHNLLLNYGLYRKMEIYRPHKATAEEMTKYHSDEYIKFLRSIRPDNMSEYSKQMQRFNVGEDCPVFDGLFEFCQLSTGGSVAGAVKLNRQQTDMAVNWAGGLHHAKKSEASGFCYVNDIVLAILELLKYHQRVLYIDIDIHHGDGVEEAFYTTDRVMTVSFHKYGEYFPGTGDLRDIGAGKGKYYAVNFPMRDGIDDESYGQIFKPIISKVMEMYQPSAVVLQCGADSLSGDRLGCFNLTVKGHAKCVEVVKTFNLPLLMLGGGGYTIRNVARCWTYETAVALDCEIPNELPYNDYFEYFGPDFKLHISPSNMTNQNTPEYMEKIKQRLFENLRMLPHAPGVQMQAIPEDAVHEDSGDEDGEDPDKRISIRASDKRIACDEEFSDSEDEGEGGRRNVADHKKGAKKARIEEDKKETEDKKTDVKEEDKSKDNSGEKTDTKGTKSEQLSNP
Chain of von Hippel-Lindau disease tumor suppressor/Histone deacetylase 2 (P40337 whole entry): as the sequence (P40337 whole entry) above
T7 sequence (P35968 whole entry): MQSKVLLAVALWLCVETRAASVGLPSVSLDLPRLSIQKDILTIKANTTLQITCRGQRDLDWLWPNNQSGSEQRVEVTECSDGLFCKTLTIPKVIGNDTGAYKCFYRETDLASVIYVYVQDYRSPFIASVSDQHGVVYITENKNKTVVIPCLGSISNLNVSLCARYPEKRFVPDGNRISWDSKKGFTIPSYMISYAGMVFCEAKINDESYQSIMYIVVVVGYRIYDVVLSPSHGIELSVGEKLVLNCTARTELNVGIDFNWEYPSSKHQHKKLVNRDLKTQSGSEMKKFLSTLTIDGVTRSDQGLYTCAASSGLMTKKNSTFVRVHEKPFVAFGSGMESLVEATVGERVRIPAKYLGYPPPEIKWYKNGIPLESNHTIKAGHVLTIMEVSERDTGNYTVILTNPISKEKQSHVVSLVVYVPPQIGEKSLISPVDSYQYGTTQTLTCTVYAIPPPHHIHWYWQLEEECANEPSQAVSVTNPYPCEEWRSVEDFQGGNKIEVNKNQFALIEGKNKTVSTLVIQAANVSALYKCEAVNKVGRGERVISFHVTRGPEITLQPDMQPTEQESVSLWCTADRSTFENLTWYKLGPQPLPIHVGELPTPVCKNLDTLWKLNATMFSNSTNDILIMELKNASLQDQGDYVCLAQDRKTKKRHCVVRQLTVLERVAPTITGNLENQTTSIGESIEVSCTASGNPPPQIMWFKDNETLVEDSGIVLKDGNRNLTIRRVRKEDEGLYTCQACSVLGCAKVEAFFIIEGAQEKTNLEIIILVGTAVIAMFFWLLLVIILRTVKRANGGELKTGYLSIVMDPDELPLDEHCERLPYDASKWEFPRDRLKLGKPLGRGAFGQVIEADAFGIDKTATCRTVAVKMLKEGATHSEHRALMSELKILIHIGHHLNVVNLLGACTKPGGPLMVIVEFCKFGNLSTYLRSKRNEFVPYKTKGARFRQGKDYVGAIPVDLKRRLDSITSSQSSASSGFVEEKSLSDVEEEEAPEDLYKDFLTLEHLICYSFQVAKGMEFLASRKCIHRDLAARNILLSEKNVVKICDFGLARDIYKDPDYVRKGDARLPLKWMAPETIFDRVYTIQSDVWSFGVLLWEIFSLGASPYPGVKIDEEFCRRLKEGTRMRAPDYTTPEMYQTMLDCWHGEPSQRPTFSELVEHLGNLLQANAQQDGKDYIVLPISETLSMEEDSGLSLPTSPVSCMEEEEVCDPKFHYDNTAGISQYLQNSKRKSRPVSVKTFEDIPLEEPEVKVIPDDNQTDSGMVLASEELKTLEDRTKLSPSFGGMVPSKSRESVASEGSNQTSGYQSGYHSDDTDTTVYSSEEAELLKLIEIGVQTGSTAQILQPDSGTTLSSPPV
Chain of von Hippel-Lindau disease tumor suppressor/Protein deacetylase HDAC6 (P40337 whole entry, one chain of several): as the sequence (P40337 whole entry) above
Chain of Cyclin-dependent kinase 4 (P11802 whole entry): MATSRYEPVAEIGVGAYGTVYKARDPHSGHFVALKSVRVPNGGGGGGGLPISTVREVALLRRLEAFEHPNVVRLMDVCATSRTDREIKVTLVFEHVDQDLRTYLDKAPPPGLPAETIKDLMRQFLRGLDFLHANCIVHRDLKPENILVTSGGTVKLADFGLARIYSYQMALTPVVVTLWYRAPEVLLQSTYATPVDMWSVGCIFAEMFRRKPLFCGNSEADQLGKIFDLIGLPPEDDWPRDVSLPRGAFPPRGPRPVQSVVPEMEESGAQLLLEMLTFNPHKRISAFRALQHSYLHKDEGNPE
Chain of Histone deacetylase 2 (Q92769 whole entry): as the sequence (Q92769 whole entry) above
Chain of Protein cereblon/Histone deacetylase 3 (O15379 whole entry): as the sequence (O15379 whole entry) above
Chain of Protein cereblon/Histone deacetylase 3 (Q96SW2 whole entry): as the sequence (Q96SW2 whole entry, one chain of several) above

Cc1ncsc1-c1ccc([C@H](C)NC(=O)[C@@H]2C[C@@H](O)CN2C(=O)[C@@H](NC(=O)COCCOCCOCC(=O)NCc2cccc(CNc3ncc(-c4nnc(C(F)F)o4)cn3)c2)C(C)(C)C)cc1
DC50 [1]: 686 nM

O=C(COc1ccc2c(c1)OC1(CCN(Cc3cc(Cl)cc(Cl)c3)CC1)CC2=O)NO
pIC50 [2]: 7.10 | pIC50 (Histone deacetylase 8 [3]): 5.10

O=C(COc1ccc2c(c1)OC1(CCN(Cc3cc(F)cc(F)c3)CC1)CC2=O)NO
pIC50 [2]: 7.10 | pIC50 (Histone deacetylase 8 [3]): 5.05

CCCNNC(=O)/C=C/c1ccc(CNCCc2c(C)[nH]c3ccccc23)cc1
pIC50 [4]: < 7.30

O=C(CCCCCCN1CCN(c2ccc(Nc3ncc(F)c(-c4cn(C5CCCC5)nn4)n3)cc2)CC1)NO
pIC50 [5]: 7.64

CCCNNC(=O)c1ccc(-c2ccc(NC(=O)CCCCCCC(=O)N[C@H](C(=O)N3C[C@H](O)C[C@H]3C(=O)N[C@@H](C)c3ccc(-c4scnc4C)cc3)C(C)(C)C)cc2)cc1
DC50 [6]: 650 nM | DC50 [7]: 2000 nM

COc1ccc(-c2ccc3c(NC(=O)CCCCCCC(=O)NO)n[nH]c3c2)cc1
pIC50 (Histone deacetylase 2): 8.40 | pIC50 (Histone deacetylase 1 [8]): 8.70 | pIC50 (Histone deacetylase 8 [9]): 8.40

O=C(/C=C/c1ccc(CSc2nc3[nH]ncc3c(=O)n2-c2ccccc2)cc1)NO
inhibition (Histone deacetylase 3 [10]): 88% | inhibition (Homo sapiens): 82.1%

Cc1sc2c(c1C)C(c1ccc(Cl)cc1)=N[C@@H](CC(=O)Nc1ccc(C(=O)Nc3ccccc3[N+](=O)[O-])cc1)c1nnc(C)n1-2
pIC50 (Histone deacetylase 1 [11]): 6.54 | pIC50 [12]: 6.14 | pIC50 [13]: 7.13

O=C(Cc1ccc2ncccc2c1)Nc1ccccc1O
pIC50 (Histone deacetylase 3 [14]): 5.70

O=C1CCC(N2C(=O)c3cccc(NCCCCCCCCCCCNC(=O)Nc4cccc(SCc5cn(-c6cccc(C(=O)NO)c6)nn5)c4)c3C2=O)C(=O)N1 (configuration not stated)
DC50 [15]: 53 nM

O=C(CCCCCCNC(=O)c1ccc(NC(=O)COCCOCCNC(=O)COc2cccc3c2C(=O)N(C2CCC(=O)NC2=O)C3=O)cc1)NO (configuration not stated)
DC50 [16]: 139 nM | DC50 [6]: 174 nM | DC50 [7]: 248 nM | DC50 [1]: 27 nM

Cc1c2ccc(N(C)c3ccnc(Nc4ccc(NC(=O)CCCCCCC(=O)NO)cc4)n3)cc2nn1C
half-life [17]: < 15 min | pIC50 [18]: 7.80 | pIC50 (Histone deacetylase 1 [19]): 6.92 | pIC50 [20]: 7.74 | pIC50 [21]: 7.03

Cc1ncsc1-c1ccc(CNC(=O)[C@@H]2C[C@@H](O)CN2C(=O)[C@@H](NC(=O)CCCCCCCCCCC(=O)Nc2ccc(C(=O)Nc3ccccc3N)cc2)C(C)(C)C)cc1
DC50 [6]: 17000 nM

CN(c1ccccc1)c1ncc(NC(=O)CS)cn1
pIC50 [2]: 7.14 | pIC50 (Histone deacetylase 1 [22]): 5.70

Cc1ccccc1/C=C/C(=O)Nc1ccc(C(=O)NS(=O)(=O)c2ccc(NCCCCCCC(=O)NO)c([N+](=O)[O-])c2)c(Oc2ccccc2)c1
pIC50 [2]: 8.52 | pIC50 (Histone deacetylase 1 [22]): 6.99

CCCNNC(=O)c1ccc(Nc2nccc(N(C)c3ccc4c(C)n(C)nc4c3)n2)cc1
half-life [17]: < 15 min | pIC50 [23]: 7.60 | pIC50 (Histone deacetylase 1 [24]): 6.38

O=C(Cc1ccc(C(=O)NO)cc1)Nc1ccc2ncnc(Nc3ccc(Br)c(F)c3)c2c1
pIC50 [2]: 7.82 | pIC50 (Histone deacetylase 1 [22]): 6.13

O=C(CCCN1CCN(C(=O)Nc2ccnc3ccccc23)CC1)NO
pIC50 (Histone deacetylase 8 [25]): 5.70

Nc1ccccc1NC(=O)Cc1ccc2ncccc2c1
pIC50 (Histone deacetylase 3 [26]): 6.25

COc1ccc(C(=O)NO)cc1NCc1ccc(OCc2cn(CCCCCNc3cccc4c3C(=O)N(C3CCC(=O)NC3=O)C4=O)nn2)cc1 (configuration not stated)
DC50 [27]: 250 nM

O=C(CS)Nc1ccc(Cn2c3c(c4ccccc42)CS(=O)(=O)CC3)cc1
pIC50 [28]: 6.89
